Each structure is given as a SMILES string. Bounds are passed on as bounds.

Series [1] in a line: Cytotoxicity against human […] cells overexpressing P-glycoprotein measured after 48 hrs by MTT assay. It counts as functional, cell-based. A general note: Tetrazolium dyes change colour on reduction, which living cells bring about.
Series [2] can be described thus: Metabolic stability of the compound in human SW620/AD300 cells assessed as production of metabolite -Deacetylchrysosporazine J at 2.5 uM for 2 to 48 hrs. It is filed as ADME, cell-based. The following applies: sw620/ad300, 2.5 µM, time 2-48 hrs.
Series [3] in a line: Metabolic stability of the compound in human SW620/AD300 cells assessed as production of metabolite -Deacetylchrysosporazine C at 2.5 uM for 2 to 48 hrs. It is filed as ADME, cell-based. The settings on record: sw620/ad300, 2.5 µM, time 2-48 hrs.
Series [4] in a line: Metabolic stability of the compound in human SW620/AD300 cells assessed as production of metabolite -Deacetylchrysosporazine B at 2.5 uM for 2 to 48 hrs. It is filed as ADME, cell-based. The following applies: sw620/ad300, 2.5 µM, time 2-48 hrs.
A short description of series [5]: Metabolic stability of the compound in human SW620/AD300 cells assessed as production of metabolite -Deacetylchrysosporazine F at 2.5 uM for 2 to 48 hrs. It counts as ADME, cell-based. The settings on record: sw620/ad300, 2.5 µM, time 2-48 hrs.

One may read the IC50 as the concentration at which inhibition is half-maximal. Lower therefore signals higher potency. In the case of `COc1c2c(cc3c1[C@H](c1ccccc1)[C@H]1C(=O)N4C[C@H](Cc5ccccc5)N(C(C)=O)C[C@@H]4[C@@H]31)OCO2`, in series [1], the IC50 is greater than 30 µM. Further, in series [2], the Stability result is listed as “Stable”.
Take `COc1cc(C[C@H]2CN3C(=O)/C(=C/c4ccccc4)[C@H](c4cc(OC)c5c(c4)OCO5)[C@H]3CN2C(C)=O)cc2c1OCO2`: the IC50 in series [1] was greater than 30 µM.
Molecule `COc1cc([C@H]2/C(=C\c3ccccc3)C(=O)N3C[C@H](Cc4ccccc4)N(C(C)=O)C[C@H]23)cc2c1OCO2` returned an IC50 in series [1] greater than 30 µM.
On the same count and under the same terms, the figure for `COc1cc([C@@H]2[C@H]3CN(C(C)=O)[C@@H](Cc4ccccc4)CN3C(=O)[C@@]23O[C@H]3c2ccccc2)cc2c1OCO2` is greater than 30 µM.
In series [1], `COc1c2c(cc3c1[C@H](c1ccccc1)[C@@]1(O)C(=O)N4C[C@H](Cc5ccccc5)N(C(C)=O)C[C@@H]4[C@@H]31)OCO2` came in with an IC50 greater than 30 µM.
In turn, `COc1cc(C[C@H]2CN3C(=O)[C@@]4(O[C@H]4c4ccccc4)[C@H](c4cc(OC)c5c(c4)OCO5)[C@H]3CN2C(C)=O)cc2c1OCO2` showed an IC50 in series [1] greater than 30 µM.
The molecule `COc1cc([C@H]2c3cccnc3C(=O)N3C[C@@H](C(=O)c4ccccc4)N(C(C)=O)C[C@H]23)cc2c1OCO2` gave a concentration for half-maximal inhibition (IC50) in series [1] greater than 30 µM.
Take `COc1cc([C@H]2c3cnccc3C(=O)N3C=CN(C(C)=O)C[C@H]23)cc2c1OCO2`: the IC50 in series [1] was greater than 30 µM.
For the molecule `COc1cc(C[C@H]2CN(C(C)=O)[C@@H](Cc3ccccc3)CN2C(=O)/C=C/c2ccccc2)cc2c1OCO2`, the IC50 in series [1] is greater than 30 µM.
In series [1], `COc1c2c(cc3c1[C@H](c1ccccc1)[C@H]1C(=O)N4C[C@H](Cc5ccccc5)NC[C@@H]4[C@@H]31)OCO2` gave an IC50 greater than 30 µM.
Consider `COC1=C[C@]2(C[C@H]3CN(C(C)=O)[C@@H](Cc4ccccc4)CN3C2=O)OC1=O`, for which, in series [1], the IC50 is greater than 30 µM.
In turn, `COc1cc([C@H]2c3ccccc3C(=O)N3C[C@H](Cc4ccccc4)N(C(C)=O)C[C@H]23)cc2c1OCO2` had an IC50 in series [1] greater than 30 µM. Further, in series [3], the Stability entry is given as “Stable”.
In the case of `COc1cc([C@H]2c3ncccc3C(=O)N3C[C@H](Cc4ccccc4)N(C(C)=O)C[C@H]23)cc2c1OCO2`, in series [1], the IC50 is greater than 30 µM.
As for `COc1cc(C[C@H]2CN3C(=O)[C@]4(O)[C@@H](c5ccccc5)c5c(cc6c(c5OC)OCO6)[C@@H]4[C@H]3CN2C(C)=O)cc2c1OCO2`, in series [1], the IC50 was greater than 30 µM.
On to `COc1cc([C@H]2c3cnccc3C(=O)N3C[C@H](C(=O)c4ccccc4)NC[C@H]23)cc2c1OCO2`, for which, in series [1], the IC50 is greater than 30 µM.
In series [1], `COc1cc(C[C@H]2CN(C(C)=O)[C@@H](Cc3ccccc3)CN2C(=O)c2ccncc2)cc2c1OCO2` had a 50% inhibitory concentration (IC50) greater than 30 µM.
Still for that read-out and setting: the figure for `COc1cc([C@H]2c3ncccc3C(=O)N3C[C@H](C(=O)c4ccccc4)N(C(C)=O)C[C@H]23)cc2c1OCO2` is greater than 30 µM; for `COc1cc(/C=C2/C(=O)N3C[C@H](Cc4ccccc4)N(C(C)=O)C[C@@H]3[C@H]2c2cc(OC)c3c(c2)OCO3)ccc1O` it is greater than 30 µM.
In series [1], `COc1cc([C@H]2c3cnccc3C(=O)N3C[C@@H](C(=O)c4ccccc4)N(C(C)=O)C[C@H]23)cc2c1OCO2` gave an IC50 greater than 30 µM.
Take `CC(=O)N1C[C@H](Cc2ccccc2)N(C(=O)c2ccccc2)C[C@@H]1Cc1ccccc1`: in series [1], the IC50 was greater than 30 µM.
`COc1cc(/C=C2/C(=O)N3C[C@H](Cc4cc(OC)c5c(c4)OCO5)N(C(C)=O)C[C@@H]3[C@H]2c2cc(OC)c3c(c2)OCO3)ccc1O` gave an IC50 in series [1] greater than 30 µM.
Same read-out and setting: the figure for `COc1cc([C@H]2c3cccnc3C(=O)N3C[C@@H](C(=O)c4ccccc4)NC[C@H]23)cc2c1OCO2` is greater than 30 µM.
For `COc1cc([C@H]2c3ccccc3C(=O)N3C[C@H](C(=O)c4ccccc4)N(C(C)=O)C[C@H]23)cc2c1OCO2`, the Stability entry in series [4] is “Stable”. In series [1], this molecule came in with an IC50 greater than 30 µM.
`CC(=O)N1C[C@H](Cc2ccccc2)N(C(=O)/C=C/c2ccccc2)C[C@@H]1Cc1ccccc1` returned an IC50 in series [1] greater than 30 µM.
With `COc1cc([C@H]2c3ccccc3C(=O)N3C[C@@H](C(=O)c4ccccc4)N(C(C)=O)C[C@H]23)cc(OC)c1O`, the IC50 in series [1] is greater than 30 µM.
Still for that read-out and setting: the figure for `COc1cc([C@H]2c3cccnc3C(=O)N3C=CN(C(C)=O)C[C@H]23)cc2c1OCO2` is greater than 30 µM.
On the same count and under the same terms, the figure for `COc1cc(C[C@H]2CN(C(C)=O)[C@@H](Cc3ccccc3)CN2C(=O)c2cccnc2)cc2c1OCO2` is greater than 30 µM.
Same read-out and setting: the figure for `COc1cc(C[C@H]2CN3C[C@@H]4[C@@H](c5ccccc5)c5c(cc6c(c5OC)OCO6)[C@@H]4[C@H]3CN2)cc2c1OCO2` is greater than 30 µM.
In turn, `COc1cc(/C=C/C(=O)N2C[C@H](Cc3cc(OC)c4c(c3)OCO4)N(C(C)=O)C[C@@H]2Cc2cc(OC)c3c(c2)OCO3)ccc1O` yielded an IC50 in series [1] greater than 30 µM.
Molecule `COc1cc([C@H]2c3cccnc3C(=O)N3C[C@H](C(=O)c4ccccc4)NC[C@H]23)cc2c1OCO2` returned an IC50 in series [1] greater than 30 µM.
In series [1], `COc1cc([C@H]2c3ccccc3C(=O)N3C[C@H](C(=O)c4ccccc4)N(C(C)=O)C[C@H]23)cc(OC)c1O` registered an IC50 greater than 30 µM.
Same read-out and setting: the same measure for `C=C(c1ccccc1)[C@H]1CN2C(=O)c3ncccc3[C@H](c3cc(OC)c4c(c3)OCO4)[C@H]2CN1`: greater than 30 µM; for `COc1cc([C@H]2c3ncccc3C(=O)N3C=CN(C(C)=O)C[C@H]23)cc2c1OCO2`: greater than 30 µM; for `COc1cc(C[C@H]2CN3C(=O)/C(=C/c4ccc(O)cc4)[C@H](c4cc(OC)c5c(c4)OCO5)[C@H]3CN2C(C)=O)cc2c1OCO2`: greater than 30 µM.
The molecule `COc1cc([C@H]2c3cnccc3C(=O)N3C[C@H](C(=O)c4ccccc4)N(C(C)=O)C[C@H]23)cc2c1OCO2` registered an IC50 in series [1] greater than 30 µM.
`COc1cc([C@H]2c3cccnc3C(=O)N3C[C@H](C(=O)c4ccccc4)N(C(C)=O)C[C@H]23)cc2c1OCO2` displayed an IC50 in series [1] greater than 30 µM.
`CC(=O)N1C[C@H](Cc2cc(O)c3c(c2)OCO3)N(C(=O)c2ccccc2)C[C@@H]1Cc1ccccc1`: the IC50 in series [1] was greater than 30 µM.
As to `COc1cc([C@H]2c3ccncc3C(=O)N3C[C@H](Cc4ccccc4)N(C(C)=O)C[C@H]23)cc2c1OCO2`, the IC50 in series [1] was greater than 30 µM.
Take `COc1cc([C@H]2c3cccnc3C(=O)N3C[C@H](Cc4ccccc4)N(C(C)=O)C[C@H]23)cc2c1OCO2`: in series [1], the IC50 is greater than 30 µM.
With `COc1cc(C[C@H]2CN(C(C)=O)[C@@H](Cc3ccccc3)CN2C(=O)c2ccccc2)cc(OC)c1O`, in series [1], the IC50 is greater than 30 µM.
For the molecule `COc1cc([C@H]2c3ccncc3C(=O)N3C=CN(C(C)=O)C[C@H]23)cc2c1OCO2`, in series [1], the IC50 is greater than 30 µM.
For the molecule `COc1cc([C@H]2c3cnccc3C(=O)N3C[C@H](Cc4ccccc4)N(C(C)=O)C[C@H]23)cc2c1OCO2`, the IC50 in series [1] was greater than 30 µM.
`COc1cc([C@H]2c3cnccc3C(=O)N3C[C@@H](C(=O)c4ccccc4)NC[C@H]23)cc2c1OCO2` had an IC50 in series [1] greater than 30 µM.
`COc1cc([C@H]2c3ccccc3C(=O)N3C=CN(C(C)=O)C[C@H]23)cc2c1OCO2` yielded an IC50 in series [1] greater than 30 µM.
For the molecule `C=C(c1ccccc1)[C@H]1CN2C(=O)c3ccncc3[C@H](c3cc(OC)c4c(c3)OCO4)[C@H]2CN1`, the IC50 in series [1] was greater than 30 µM.
In series [1], `C=C(c1ccccc1)[C@H]1CN2C(=O)c3ccccc3[C@H](c3cc(OC)c4c(c3)OCO4)[C@H]2CN1` returned an IC50 greater than 30 µM.
As for `COc1cc(C[C@H]2CN3C(=O)[C@@H]4[C@@H](c5ccccc5)c5c(cc6c(c5OC)OCO6)[C@@H]4[C@H]3CN2C(C)=O)cc2c1OCO2`, the IC50 in series [1] was greater than 30 µM. Besides, the Stability entry in series [5] is recorded as “Stable”.
In series [1], `COc1cc([C@H]2c3ccccc3C(=O)N3C[C@H](C(=O)c4ccccc4)NC[C@H]23)cc2c1OCO2` had an IC50 greater than 30 µM.
In series [1], `COc1cc(C[C@H]2CN(C(C)=O)[C@@H](Cc3ccccc3)CN2)cc(OC)c1O` displayed an IC50 greater than 30 µM.
`COc1cc([C@H]2/C(=C\c3ccc(O)cc3)C(=O)N3C[C@H](Cc4ccccc4)N(C(C)=O)C[C@H]23)cc2c1OCO2` returned an IC50 in series [1] greater than 30 µM.
Same read-out and setting: the figure for `COc1cc(C[C@H]2CN(C(=O)/C=C/c3ccccc3)[C@@H](Cc3cc(OC)c4c(c3)OCO4)CN2C(C)=O)cc2c1OCO2` is greater than 30 µM.
Molecule `COc1cc(C[C@H]2CN(C(C)=O)[C@@H](Cc3ccccc3)CN2C(=O)c2ccccn2)cc2c1OCO2` showed an IC50 in series [1] greater than 30 µM.
The molecule `COc1cc(C[C@H]2CN(C(=O)c3ccccc3)[C@@H](Cc3cc(OC)c4c(c3)OCO4)CN2C(C)=O)cc2c1OCO2` gave an IC50 in series [1] greater than 30 µM.

Values taken from ChEMBL document CHEMBL5042527, “Neochrysosporazines: Precursor-Directed Biosynthesis Defines a Marine-Derived Fungal Natural Product P-Glycoprotein Inhibitory Pharmacophore” (J Med Chem, 2022).
